Assay results as given in patent US11453677B2 (priority 2016, dated 2022).

What was measured:
Assay in all cases: cells
Assay type in all cases: cell-based
[1] = test system: influenza A virus minigenome (PB2, PB1, PA, NP) RNP_Alaska in 293T cells; conditions: HEK-293T, 48 h, read-out: RNP_Alaska EC50
[2] = test system: influenza A virus minigenome (PB2, PB1, PA, NP) RNP_CAL in 293T cells; conditions: HEK-293T, 48 h, read-out: RNP_CAL_EC50
[3] = test system: influenza virus minigenome (PB2, PB1, PA, NP) RNP_Hubei in 293T cells; conditions: unidentified influenza virus, HEK-293T, 48 h, read-out: RNP_Hubei EC50

Row | Structure (SMILES) | EC50 [1] [nM] | EC50 [2] [nM] | EC50 [3] [nM]
1 | O=c1cnn2c(c1O)-c1nccn1C[C@@H]2[C@@H](c1ccc(F)cc1)c1cc(F)cc(F)c1 [Example 34, (S)-6-((S)-(3,5-difluorophenyl)(4-fluorophenyl)methyl)-11-hydroxy-5H-imidazo[2′,1′:3,4]pyrazino[1,2-b]pyridazin-10(6H)-one] | 33 | 25 | 34
2 | O=c1cnn2c(c1O)-c1nccn1CC2C(c1ccc(F)cc1)c1ccc(F)cc1 (stereo not drawn) [Example 12, 6-(bis(4-fluorophenyl)methyl)-11-hydroxy-5H-imidazo[2′,1′:3,4]pyrazino[1,2-b]pyridazin-10(6H)-one] | 70 | 800 | 60
3 | N#Cc1ccc([C@H](c2ccc(F)cc2)[C@H]2Cn3ccnc3-c3c(O)c(=O)cnn32)cc1 [Example 45, 4-((R)-(4-fluorophenyl)((S)-11-hydroxy-10-oxo-5,6-dihydro-10H-imidazo[2′,1′:3,4]pyrazino[1,2-b]pyridazin-6-yl)methyl)benzonitrile] | 76 | 42 | 160
4 | O=c1cnn2c(c1O)-c1nccn1C[C@@H]2[C@@H](c1ccc(F)cc1)c1cccc(F)c1 [Example 24, (S)-6-((S)-(3-fluorophenyl)(4-fluorophenyl)methyl)-11-hydroxy-5,6-dihydro-10H-imidazo[2′,1′:3,4]pyrazino[1,2-b]pyridazin-10-one] | 52 | 36 | 59
5 | O=c1cnn2c(c1O)-c1nccn1CC2C(c1ccccc1)c1ccccc1 (stereo not drawn) [Example 1, 6-Benzhydryl-11-hydroxy-5H-imidazo[2′,1′:3,4]pyrazino[1,2-b]pyridazin-10(6H)-one] | 130 | 110 | 110
6 | O=c1cnn2c(c1O)-c1nccn1C[C@@H]2[C@@H](c1ccccc1)c1ccc(F)cc1 [Example 18, (S)-6-((S)-(4-fluorophenyl)(phenyl)methyl)-11-hydroxy-5,6-dihydro-10H-imidazo[2′,1′:3,4]pyrazino[1,2-b]pyridazin-10-one] | 130 | 130 | 160
7 | O=c1cnn2c(c1O)-c1nccn1C[C@@H]2[C@@H](c1ccc(F)cc1)c1cccc(C(F)(F)F)c1 [Example 21, (S)-6-((S)-(4-fluorophenyl)(3-(trifluoromethyl)phenyl)methyl)-11-hydroxy-5,6-dihydro-10H-imidazo[2′,1′:3,4]pyrazino[1,2-b]pyridazin-10-one] | 71 | 52 | 110
8 | Cc1ccccc1[C@H](c1ccc(F)cc1)[C@H]1Cn2ccnc2-c2c(O)c(=O)cnn21 [Example 40, (S)-6-((S)-(4-fluorophenyl)(o-tolyl)methyl)-11-hydroxy-5,6-dihydro-10H-imidazo[2′,1′:3,4]pyrazino[1,2-b]pyridazin-10-one] | 20 | 32 | 35
9 | N#Cc1cnc2n1C[C@H](C(c1ccc(F)cc1)c1ccc(F)cc1)n1ncc(=O)c(O)c1-2 [Example 49, (S)-6-(bis(4-fluorophenyl)methyl)-11-hydroxy-10-oxo-5,6-dihydro-10H-imidazo[2′,1′:3,4]pyrazino[1,2-b]pyridazine-3-carbonitrile] | 870 | 820 | 560
10 | CCC1N(C(c2ccccc2)c2ccccc2)n2ccc(=O)c(O)c2-c2nccn21 (stereo not drawn) [Example 78, 6-benzhydryl-5-ethyl-11-hydroxy-5,6-dihydro-10H-imidazo[1,2-d]pyrido[2,1-f][1,2,4]triazin-10-one] | 250 | 180 | 340
11 | O=c1cnn2c(c1O)-c1nccn1C[C@@H]2[C@@H](c1ccc(F)cc1)c1ccccc1Cl [Example 29, (S)-6-((S)-(2-chlorophenyl)(4-fluorophenyl)methyl)-11-hydroxy-5,6-dihydro-10H-imidazo[2′,1′:3,4]pyrazino[1,2-b]pyridazin-10-one] | 70 | 72 | 58
12 | O=c1ccn2c(c1O)-c1ncoc1CN2C(c1ccccc1)c1ccccc1 [Example 83, 5-benzhydryl-10-hydroxy-4,5-dihydro-9H-oxazolo[4,5-d]pyrido[1,2-b]pyridazin-9-one] | 960 | 970 | 730
13 | CSc1cccc([C@H](c2ccc(F)cc2)[C@H]2Cn3ccnc3-c3c(O)c(=O)cnn32)c1 [Example 28, (S)-6-((S)-(4-fluorophenyl)(3-(methylthio)phenyl)methyl)-11-hydroxy-5,6-dihydro-10H-imidazo[2′,1′:3,4]pyrazino[1,2-b]pyridazin-10-one] | 72 | 81 | 78
14 | O=c1cnn2c(c1O)-c1nccn1C[C@@H]2[C@H](c1cccc(F)c1)c1ccc(F)cc1Br [Example 36, (S)-6-((R)-(2-bromo-4-fluorophenyl)(3-fluorophenyl)methyl)-11-hydroxy-5,6-dihydro-10H-imidazo[2′,1′:3,4]pyrazino[1,2-b]pyridazin-10-one] | 21 | 27 | 63
15 | O=c1ccn2c(c1O)-c1nccn1C[C@@H]2C(c1ccccc1)c1ccccc1 [Example 4, (S)-6-Benzhydryl-11-hydroxy-5H-imidazo[1,2-a]pyrido[2,1-c]pyrazin-10(6H)-one] | 180 | 160 | 90
16 | CC(=O)Oc1c2n(ncc1=O)[C@@H](C(c1ccc(F)cc1)c1ccc(F)cc1)Cn1ccnc1-2 [Example 85, (S)-6-(bis(4-fluorophenyl)methyl)-10-oxo-5,6-dihydro-10H-imidazo[2′,1′:3,4]pyrazino[1,2-b]pyridazin-11-yl acetate] | 19 | 22 | 49
17 | O=c1cnn2c(c1O)-c1nccn1C[C@@H]2[C@@H](c1ccc(F)cc1)c1ccc(C(F)(F)F)cc1 [Example 32, (S)-6-((R)-(4-fluorophenyl)(4-(trifluoromethyl)phenyl)methyl)-11-hydroxy-5,6-dihydro-10H-imidazo[2′,1′:3,4]pyrazino[1,2-b]pyridazin-10-one] | 280 | 250 | 720
18 | O=c1cnn2c(c1O)-c1ncnn1CC2C(c1ccccc1)c1ccccc1 (stereo not drawn) [Example 3, 6-benzhydryl-11-hydroxy-5,6-dihydro-10H-[1,2,4]triazolo[5′,1′:3,4]pyrazino[1,2-b]pyridazin-10-one] | 1400 | 1100 | 790
19 | O=c1cnn2c(c1O)-c1nccn1C[C@@H]2[C@H](c1ccccc1)c1ccc(F)cc1 [Example 17, (S)-6-((R)-(4-fluorophenyl)(phenyl)methyl)-11-hydroxy-5,6-dihydro-10H-imidazo[2′,1′:3,4]pyrazino[1,2-b]pyridazin-10-one] | 30 | 10 | 70
20 | N#Cc1cccc([C@H](c2cccc(F)c2)[C@H]2Cn3ccnc3-c3c(O)c(=O)cnn32)c1 [Example 46, 3-((R)-(3-fluorophenyl)((S)-11-hydroxy-10-oxo-5,6-dihydro-10H-imidazo[2′,1′:3,4]pyrazino[1,2-b]pyridazin-6-yl)methyl)benzonitrile] | 150 | 64 | 190
21 | O=c1ccn2c(c1O)-c1ncc(-c3ccccc3)n1C[C@@H]2C(c1ccccc1)c1ccccc1 [Example 53, (S)-6-benzhydryl-11-hydroxy-3-phenyl-5H-imidazo [1,2-a] pyrido[2,1-c]pyrazin-10(6H)-one] | 540 | 3000 | 190
22 | O=c1ccn2c(c1O)-c1ncc(Cl)n1C[C@@H]2C(c1ccccc1)c1ccccc1 [Example 5, (S)-6-Benzhydryl-3-chloro-11-hydroxy-5,6-dihydro-10H-imidazo[1,2-a]pyrido[2,1-c]pyrazin-10-one] | 220 | 100 | 180
23 | O=c1cnn2c(c1O)-c1nccn1C[C@@H]2[C@H](c1ccc(F)cc1)c1cncc(F)c1 [Example 19, (S)-6-((R)-(4-fluorophenyl)(5-fluoropyridin-3-yl)methyl)-11-hydroxy-5,6-dihydro-10H-imidazo[2′,1′:3,4]pyrazino[1,2-b]pyridazin-10-one] | 230 | 260 | 490
24 | N#Cc1ccccc1[C@H](c1ccc(F)cc1)[C@H]1Cn2ccnc2-c2c(O)c(=O)cnn21 [Example 44, 2-((S)-(4-fluorophenyl)((S)-11-hydroxy-10-oxo-5,6-dihydro-10H-imidazo[2′,1′:3,4]pyrazino[1,2-b]pyridazin-6-yl)methyl)benzonitrile] | 550 | 300 | 310
25 | CC(C)C(=O)Oc1c2n(ncc1=O)[C@@H](C(c1ccc(F)cc1)c1ccc(F)cc1)Cn1ccnc1-2 [Example 86, (S)-6-(bis(4-fluorophenyl)methyl)-10-oxo-5,6-dihydro-10H-imidazo[2′,1′:3,4]pyrazino[1,2-b]pyridazin-11-yl Isobutyrate] | 30 | 21 | 47
26 | O=c1cnn2c(c1O)-c1nccn1C[C@@H]2C(c1cccc(F)c1)c1cccc(F)c1 [Example 23, (S)-6-(bis(3-fluorophenyl)methyl)-11-hydroxy-5,6-dihydro-10H-imidazo[2′,1′:3,4]pyrazino[1,2-b]pyridazin-10-one] | 23 | 39 | 36
27 | O=c1ccn2c(c1O)-c1ncc(Br)n1C[C@@H]2C(c1ccccc1)c1ccccc1 [Example 7, (S)-6-benzhydryl-3-bromo-11-hydroxy-5H-imidazo[1,2-a]pyrido[2,1-c]pyrazin-10(6H)-one] | 140 | 170 | 160
28 | O=c1cnn2c(c1O)-c1nccn1C[C@@H]2[C@@H](c1ccc(F)cc1)c1ccc(Cl)cc1 [Example 33, (S)-6-((S)-(4-chlorophenyl)(4-fluorophenyl)methyl)-11-hydroxy-5,6-dihydro-10H-imidazo[2′,1′:3,4]pyrazino[1,2-b]pyridazin-10-one] | 87 | 110 | 270
